Here are results for two compounds from patent US5447957A, “Anti-inflammatory compounds” (SmithKline Beecham Corp., priority 1994, dated 1995).

Usually IC50 stands for the point on the concentration scale where inhibition reaches its midpoint.

The subject of one assay is human neutrophils. The assay can be described thus: Assay (d): Production of Platelet-Activating Factor (PAF), A23187-challenged neutrophils. The format is cell-based. The conditions noted are these: A23187 2 μM. How it is done:
Assay (d): Assay for Production of Platelet-Activating Factor (PAF)
Blood is obtained from normal humans and neutrophils were isolated as described for the arachidonic acid release assay, above. The final leukocyte preparation should be of greater than 95% purity and viability.
Neutrophils were suspended in PBS at concentrations of 5 to 20×10^6 cells per ml. Cells were added to test tubes and treated with the desired compounds for 5 to 10 minutes, then challenged with calcium ionophore A23187, 2 μM and 20-30 μCi of [3H]acetic acid (NEN-Dupont, Boston, Mass.), or the vehicle of PBS with 0.25-1 mg/ml. After 5 to 20 minutes, the reactions were terminated by addition of an equal volume of chloroform:methanol (1:2, v/v) to the samples and the lipids were extracted by addition of equal volumes of chloroform and distilled water. The samples were vortexed and centrifuged at high speed and the chloroform layer removed to a clean tube.
The chloroform from each tube was evaporated to dryness and the material suspended in a small volume of chloroform or chloroform:methanol (25-100 μl) and the total material spotted on a Silica TLC plate. The plates were developed in chloroform/methanol/acetic acid/water (50:25:8:4, v/v) visualized by radioscanning (Bioscan) and the product, [^3 H]PAF, was scraped and quantified by liquid scintillation spectroscopy. […]

The next assay has as its system human monocytes. The assay can be described thus: Assay (f): stimulated eicosanoid (PGE2, LTC4) release by human monocytes. The format is cell-based. The conditions noted are these: Monocyte, 0.25 h, A23187 1 μM, 15 min. As for the experimental part:
Assay (f): Measurement of stimulated eicosanoid release by human monocytes.
Leukocyte-rich leukopaks obtained from Biological Specialties (Lansdale, Pa.) were collected from male volunteers who were not taking anti-inflammatory drugs. Leukopaks were centrifuged (90× g for 15 min) twice to remove the platelet-rich plasma. The cell pellet was washed by centrifugation and resuspended in HBSS without Ca^2+ or Mg^2+. Histopaque 1077 was layered under the cell suspension and centrifuged at 400× g for 30 min to obtain the buffy coat. The interfacial buffy coat, containing monocytes and lymphocytes, was removed and saved. The buffy coat was washed twice with HBSS without Ca^2+ or Mg^2+ by centrifugation. The cell pellet (4-6×10^8 cells/30 mls) was resuspended in iso-osmotic media (RPMI-1640, 10% heat inactivated fetal bovine serum (FBS), 0.2 mM L-glutamine, 2.5 mM HEPES) and layered over an equal volume of 46% Percol mixture (10X PBS/Percol; 9.25/0.75) and 54% iso-osmotic media and centrifuged for 30 min at 1000× g (Marshall and Roshak, Biochem. Cell Biol. 71: 331-339, 1993). The monocyte population located at the interface of the Percoll gradient was removed and washed twice in HBSS without Ca^2+ or Mg^2+.
Monocytes (5×10^6 /ml) were incubated as a suspension in serum-free RPMI- 1640 medium containing the vehicle DMSO (<1%) or drug for 30 min at […] after which vehicle or stimuli was added for the indicated time. The stimulating agent is solubilized in DMSO and appropriate vehicle controls were included in all experiments. The amount of stimuli was chosen from the linear portion of a concentration versus product curve usually representing 60-80% maximal stimulation over the indicated incubation time at 37° C. (A23187, 1 μM,(15 min). The reaction was terminated by reduction of pH through addition of citric acid and centrifugation (10 min, 400× g, 4° C.). Cell viability was monitored before and after experiments using trypan blue exclusion. The cell-free media was decanted and stored at -70° C. until analyzed. Prostaglandin E2 and LTC4 were directly measured in cell-free media using enzyme immunoassay (EIA) kits purchased from Caymen Chemical Co. (Ann Arbor, Mich.). Sample or standard dilutions were made with appropriate media and analyzed in triplicate. Results were obtained by extrapolation from a standard curve prepared in the media and expressed as pg or ng/ml of sample.

The subject of assay [1] is TPA-induced Mouse Ear Inflammation. The assay can be described thus: Assay (g): TPA-induced Mouse Ear Inflammation (ear edema and MPO). The format is in vivo. The conditions noted are these: "this animal model"; topical. An excerpt:
The ability of compounds that inhibit CoA-IT and/or PLA2 to affect in vivo inflammatory responses may be assessed. Inflammatory responses are induced in the mouse ear by the topical application of a pro-inflammatory agent, such as 12-0-tetradecanoylphorbol 13-acetate (assay g). This produces an edematous response, as measured by increases in ear thickness, as well as increased inflammatory cellular infiltrate, as measured by increases in myeloperoxidase activity (as described in the methods). To further validate the mechanism of action inflammation induced by the direct adminstration of arachidonic acid can be used. In this case compounds altering arachidonic acid mobilization or liberation should be with our effect.
Male Balb/c inbred mice were obtained from Charle River Breeding Laboratories (Kingston, N.Y.). Within a single experiment mice (22-25 g) were age-matched. These in vivo experiments typically involved use of 5-6 animals/group.
TPA (12-0-tetradecanoylphorbol 13-acetate) (Sigma Chemical Company) in acetone ([…]) was applied to the inner and outer surfaces of the left ear of BALB/c male mice. The thickness of both ears was then measured with a dial micrometer (Mitutoyo, Japan) at both 2 and 4 hours after treatment, and the data expressed as the change in thickness (10^-3 cm) between treated and untreated ears. […] After measuring the edema, the inflammed left ears were removed and stored at -70° C. until they were assayed for MPO (myeloperoxidase) activity where appropriate.
On the day of the assay, partially thawed ear tissues were minced and then homogenized (10% w/v) with a Tissumizer homogenizer (Tekmar Co.) in 50 mM phosphate buffer (pH 6) containing 0.5% HTAB. The tissue homogenates were taken through three cycles of freeze-thaw, followed by brief sonication (10 sec). The method of Bradley et al. was used with modifications as described. The appearance of a colored product from the MPO-dependent reaction of o-dianisidine (0.167 mg/ml; Sigma) and hydrogen peroxide (0.0005%; Sigma) was measured spectrophotometrically at 460 nm. Supernatant MPO activity was quantified kinetically (change in absorbance measured over 3 min, sampled at 15-sec intervals) using a Beckman DU-7 spectrophotometer and a Kinetics Analysis package (Beckman Instruments, Inc.). One unit of MPO activity is defined as that degrading one micromole of peroxide per minute at 25° C.
Statistical analysis was done using Student's "t" test. The ED50 are values which cause a 50% inhibition of the inflammatory response and are calculated by regression analysis of the dose response data.

Setting [2] is: read-out: IC50 for LTC4 release.

Where two headings read alike, the source gives them in different places. Some results are limits rather than exact numbers.

Turning to `O=C(Nc1cc(C(F)(F)F)cc(C(F)(F)F)c1)Nc1ccccc1Oc1ccccc1C(=O)O` [Example 2, 2-[2-[3-[3,5-Bis (trifluoromethyl)phenyl]ureido]phenoxy]benzoic acid], the “inhibition of PAF production” value in the assay on human neutrophils is “positive activity”. For the same compound, the concentration for half-maximal inhibition (IC50) was approximately 1 µM in the assay on human monocytes (setting [2]) and 0.1 to 1 µM in the assay on human monocytes (read-out: IC50 of PGE2 release). Besides, the “inhibition in mouse ear inflammation animal model” value in assay [1] was “positive inhibition”.

On to `O=C(Nc1cc(C(F)(F)F)cc(C(F)(F)F)c1)Nc1cc(C(F)(F)F)ccc1Oc1ccccc1C(=O)O` [Example 7, 2-[2-[3-[3,5-Bis(trifluoromethyl)phenyl]ureido]-4-trifluoromethylphenoxy]benzoic acid], for which, in the assay on human neutrophils, the “inhibition of PAF production” value is recorded as “positive activity”. In addition, the half-inhibitory concentration (IC50) in the assay on human monocytes (setting [2]) is 1 to 2 µM; with human monocytes (read-out: IC50 of PGE2 release), more than 10 µM. For the same compound, the “inhibition in mouse ear inflammation animal model” value in assay [1] is listed as “positive inhibition”.
